Structures can show the parent of a compound that is named as a salt.
Legend:
[1] = target: Acetylcholinesterase (Electrophorus electricus) (UniProt O42275); assay: Inhibition of electric eel AChE using acetylthiocholine iodide as substrate at 10 uM preincubated for 20 mins followed by substrate addition and measured every 20 secs for 3 mins by Ellman's method relative to control; conditions: time 23.0 min
[2] = Lipophilicity, log P of the compound in n-octanol/water by HPLC method; format: physicochemical
Acetylcholinesterase [3] = target: T1, Acetylcholinesterase (Electrophorus electricus, UniProt O42275); assay: Inhibition of electric eel AChE using acetylthiocholine iodide as substrate preincubated for 20 mins followed by substrate addition and measured every 20 secs for 3 mins by Ellman's method
T1 sequence (O42275 whole entry): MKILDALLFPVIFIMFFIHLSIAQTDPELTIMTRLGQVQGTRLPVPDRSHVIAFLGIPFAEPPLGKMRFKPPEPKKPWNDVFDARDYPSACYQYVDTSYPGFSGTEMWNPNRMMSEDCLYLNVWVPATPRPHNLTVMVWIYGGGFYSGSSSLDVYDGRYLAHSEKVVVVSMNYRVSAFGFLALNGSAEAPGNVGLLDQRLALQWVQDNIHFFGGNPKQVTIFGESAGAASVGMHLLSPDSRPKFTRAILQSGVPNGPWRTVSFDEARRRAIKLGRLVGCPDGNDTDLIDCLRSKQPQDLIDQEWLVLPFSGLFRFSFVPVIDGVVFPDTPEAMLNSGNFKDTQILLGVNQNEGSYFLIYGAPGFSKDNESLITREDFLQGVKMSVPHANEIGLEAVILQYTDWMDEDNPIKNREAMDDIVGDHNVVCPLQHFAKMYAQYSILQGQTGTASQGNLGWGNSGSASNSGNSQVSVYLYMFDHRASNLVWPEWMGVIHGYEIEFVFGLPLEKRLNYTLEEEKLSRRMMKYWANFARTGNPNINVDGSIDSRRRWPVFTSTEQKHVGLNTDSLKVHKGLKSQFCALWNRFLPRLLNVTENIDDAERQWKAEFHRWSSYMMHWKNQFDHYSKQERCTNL

Cholinesterase = Cholinesterase (Equus caballus, UniProt P81908); assay: Inhibition of horse serum BuChE using butyrylthiocholine iodide as substrate preincubated for 20 mins followed by substrate addition and measured every 20 secs for 3 mins by Ellman's method
Cholinesterase, sequence (P81908 whole entry): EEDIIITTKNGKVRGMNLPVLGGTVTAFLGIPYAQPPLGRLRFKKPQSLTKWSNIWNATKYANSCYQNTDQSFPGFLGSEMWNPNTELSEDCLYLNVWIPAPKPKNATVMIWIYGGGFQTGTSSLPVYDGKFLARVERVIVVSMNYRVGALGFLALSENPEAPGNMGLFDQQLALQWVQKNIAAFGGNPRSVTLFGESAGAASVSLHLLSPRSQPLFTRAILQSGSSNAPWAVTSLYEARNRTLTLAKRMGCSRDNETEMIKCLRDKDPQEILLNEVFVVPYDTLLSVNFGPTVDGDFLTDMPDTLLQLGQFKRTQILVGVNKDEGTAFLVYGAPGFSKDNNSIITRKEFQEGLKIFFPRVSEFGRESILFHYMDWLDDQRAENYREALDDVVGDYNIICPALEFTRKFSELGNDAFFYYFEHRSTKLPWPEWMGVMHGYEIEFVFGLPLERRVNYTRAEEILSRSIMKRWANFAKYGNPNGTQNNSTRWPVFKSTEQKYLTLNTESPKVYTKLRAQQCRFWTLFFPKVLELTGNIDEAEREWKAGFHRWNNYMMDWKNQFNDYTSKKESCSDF

[4] = Selectivity index, ratio of IC50 for horse serum BuChE using butyrylthiocholine iodide as substrate to IC50 for electric eel AChE using acetylthiocholine iodide as substrate
MRC5 = assay: Cytotoxicity against human MRC5 cells assessed as reduction in cell viability at 50 ug/ml relative to control; format: toxicity, cell-based; conditions: at 50 µg/mL
Acetylcholinesterase [5] = target: T1, Acetylcholinesterase; assay: Binding affinity to electric eel AChE assessed as inhibition constant by Lineweaver-Burk plot analysis
[6] = Cytotoxicity against human MRC5 cells assessed as reduction in cell viability; format: toxicity, cell-based

Acetylcholinesterase (Electrophorus electricus), sequence (O42275 24-633 limits assumed): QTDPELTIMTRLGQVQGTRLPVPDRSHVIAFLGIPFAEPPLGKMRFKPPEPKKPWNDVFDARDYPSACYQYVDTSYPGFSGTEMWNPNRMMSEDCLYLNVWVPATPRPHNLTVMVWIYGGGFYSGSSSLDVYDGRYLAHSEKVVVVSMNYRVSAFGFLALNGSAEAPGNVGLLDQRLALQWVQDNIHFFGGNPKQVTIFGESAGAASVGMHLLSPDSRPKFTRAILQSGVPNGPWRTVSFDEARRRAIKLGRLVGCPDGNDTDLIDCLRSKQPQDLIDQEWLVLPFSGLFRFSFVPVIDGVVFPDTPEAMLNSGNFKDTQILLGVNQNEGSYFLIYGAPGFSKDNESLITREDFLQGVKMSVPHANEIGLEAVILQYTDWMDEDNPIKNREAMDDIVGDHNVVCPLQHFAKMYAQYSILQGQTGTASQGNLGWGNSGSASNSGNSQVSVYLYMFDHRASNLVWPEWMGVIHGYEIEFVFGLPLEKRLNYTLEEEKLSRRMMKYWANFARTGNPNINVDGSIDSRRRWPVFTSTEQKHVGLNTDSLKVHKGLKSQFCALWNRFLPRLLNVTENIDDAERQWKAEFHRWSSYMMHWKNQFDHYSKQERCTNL

SMILES	inhibition [1] [%]	logP [2]	IC50 (Acetylcholinesterase [3]) [nM]	IC50 (Cholinesterase) [nM]	Ratio IC50 [4]	Activity (MRC5) [%]	Ki (Acetylcholinesterase [5]) [nM]	IC50 [6] [µg/mL]
COc1cc2c3c(c1OC)-c1ccccc1CC3N(C(=O)c1ccncc1)CC2 (racemic)	5							
COc1cc2c3c(c1OC)-c1ccccc1CC3N(C(=O)c1cc[n+](Cc3ccccc3)cc1)CC2.[Br-] (racemic)		2.2	350	1330	3.8	3.62		
COc1cc2c3c(cc4ccccc4c3c1OC)N(C(=O)c1cc[n+](Cc3ccccc3Cl)cc1)CC2			1640	440	0.3			
COc1cc2c3c(c1OC)-c1ccccc1C[C@H]3N(C(=O)c1cc[n+](Cc3ccc(F)cc3)cc1)CC2		2.3	12200	15400	1.3		6870	
COc1cc2c3c(cc4ccccc4c3c1OC)N(C(=O)c1ccncc1)CC2	16							
COc1cc2c3c(c1OC)-c1ccccc1CC3N(C(=O)c1cc[n+](Cc3ccc(Cl)cc3)cc1)CC2 (racemic)	31	2.67						
COc1cc2c3c(c1OC)-c1ccccc1CC3N(C(=O)c1cc[n+](Cc3cccc(F)c3)cc1)CC2 (racemic)			450	1340	3			
COc1cc2c3c(c1OC)-c1ccccc1CC3N(C(=O)c1cc[n+](Cc3ccc(F)cc3)cc1)CC2.[Br-] (racemic)		2.3	660	4730	7	2.46		
COc1cc2c3c(cc4ccccc4c3c1OC)NCC2	12							
COc1cc2c3c(c1OC)-c1ccccc1C[C@H]3N(C(=O)c1cc[n+](Cc3ccccc3)cc1)CC2		2.2	7150	4950	0.7		2570	
COc1cc2c3c(c1OC)-c1ccccc1C[C@H]3N(C(=O)c1cc[n+](Cc3ccccc3Cl)cc1)CC2.[Br-]		2.36	2940	2490	0.8	5.3	1650	
COc1cc2c3c(c1OC)-c1ccccc1CC3N(C(=O)c1cc[n+](Cc3ccccc3F)cc1)CC2 (racemic)			410	1370	3.3			
COc1cc2c3c(c1OC)-c1ccccc1CC3N(C(=O)c1cc[n+](Cc3cccc(Cl)c3)cc1)CC2 (racemic)		2.62	2150	960	0.5			
COc1cc2c3c(c1OC)-c1ccccc1C[C@@H]3N(C(=O)c1cc[n+](Cc3ccc(F)cc3)cc1)CC2		2.3	370	8580	23.2		270	
COc1cccc2c1C(=O)c1c(O)c3c(c(O)c1C2=O)C[C@@](O)(C(=O)CO)C[C@@H]3O[C@H]1C[C@H](N)[C@H](O)[C@H](C)O1 [DOXORUBICIN HYDROCHLORIDE]								1.54
COc1cc2c3c(c1OC)-c1ccccc1CC3N(C(=O)c1cc[n+](Cc3ccccc3Cl)cc1)CC2.[Br-] (racemic)		2.36	180	710	3.9	2.96		
COc1cc2c3c(c1OC)-c1ccccc1C[C@@H]3N(C(=O)c1cc[n+](Cc3ccccc3)cc1)CC2		2.2	120	4900	40.8		170	
COc1cc2c3c(c1OC)-c1ccccc1CC3N(C(=O)c1cc[n+](Cc3c(F)cccc3F)cc1)CC2 (racemic)		2.08	800	970	1.2			
COc1cc2c3c(cc4ccccc4c3c1OC)N(C(=O)c1cc[n+](Cc3ccccc3F)cc1)CC2			2730	280	0.1			
COc1cc2c3c(c1OC)-c1ccccc1C[C@@H]3N(C(=O)c1cc[n+](Cc3ccccc3Cl)cc1)CC2.[Br-]		2.36	60	1820	30.3	5.03	220	
COc1cc2c3c(c1OC)-c1ccccc1CC3N(C(=O)c1cc[n+](Cc3cccc(F)c3F)cc1)CC2 (racemic)			750	1540	2			
COc1cc2c3c(cc4ccccc4c3c1OC)N(C(=O)c1cc[n+](Cc3ccccc3)cc1)CC2	69							

— ChEMBL document CHEMBL5357015, “Synthesis, Antiacetylcholinesterase Activity, and Molecular Dynamics Simulation of Aporphine-benzylpyridinium Conjugates” (ACS Med Chem Lett, 2024)
